Reference: patent US11578084B2, “Condensed ring compounds having dopamine D3 receptor antagonistic effect” (Shionogi & Co., Ltd., priority 2018, dated 2023)
pKi: −log10 of the molar value.

Columns and labels:
[1] = biological target: human recombinant dopamine D3 receptor (Homo sapiens (Human), UniProt P35462); assay: Test of binding inhibition for dopamine D3 receptor ([3H]-Methylspiperone SPA); conditions: Jump-In HEK cell membranes, 2 nM [3H]-Methylspiperone, 120 min at 25° C.; read-out: hD3_Ki
Description: (§1) (Experimental Conditions)
Cell membranes: Jump-In HEK cell membranes expressing human recombinant dopamine D3 receptor (4 μg/well)
(§2) Non-specific ligand: (final concentration) 10 μM Butaclamol [(+)-Butaclamol Hydrochloride, D033, Sigma]
(§3) SPA beads solution: SPA beads [WGA PVT SPA Scintillation Beads, RPNQ0001 (500 mg), RPNQ0060 (2 g), PerkinElmer] (0.2 mg/well)
(§4) Incubation time and temperature: 120 min at 25° C.
(§5) Butaclamol or the compounds of the present invention were weighed and DMSO was added to make a 10 mM solution. This solution was diluted to each concentration.
[^3H]-Methylspiperone was weighed and the buffer solution was added to make a 6 nM solution.
(§6) SPA beads were weighed and stirred in water to make a 50 mg/mL solution. Using this solution, a mixture with the cell membranes was prepared.
(§7) Jump-In HEK Cell membranes (final reaction amount: 4 μg protein/well), the SPA beads solution (final reaction amount: 0.2 mg/well) and the buffer solution were mixed and the mixed solution was left still for 1 hour or more at 4° C. Then, 50 μL of the mixture was added to each well of the plate. In addition, 25 μL of 6 nM [^3H]-Methylspiperone (final concentration: 2 nM) was added to each well. […] Non-specific binding was calculated based on the radioactivity of [^3H]-Methylspiperone in the presence of 10 μM non-labeled Butaclamol. The total binding was calculated using the radioactivity of [H]-Methylspiperone in the absence of the compounds of the present invention (vehicle). The Ki values were calculated from dose-response curves.
(§8) Binding activities of the compounds of the present invention were calculated from the following Binding Inhibition Rate (%): Inhibition Rate (%)=[1−(c−a)/(b−a)]×100 • a: Average cpm of non-specific binding • b: Average cpm of total binding • c: Cpm in the presence of each test compound

[2] = biological target: human recombinant dopamine D2 receptor (Homo sapiens (Human), UniProt P14416); assay: Test of binding inhibition for dopamine D2 receptor ([3H]-Methylspiperone SPA); conditions: Jump-In HEK cell membranes, 1.2 nM [3H]-Methylspiperone, 120 min at 25° C.; read-out: hD2_Ki
Description: as §1
Cell membranes: Jump-In HEK cell membranes expressing human recombinant dopamine D2 receptor (2 μg/well)
as §2, §3, §4, §5, §6
as §7, with “amount: 2” for “amount: 4”, “were mixed,” for “were mixed”, “plate.” for “plate. In addition, 25 μL of 6 nM [^3H]-Methylspiperone (final concentration: 2 nM) was added to each well.”, “of [^3H]-Methylspiperone” for “of [H]-Methylspiperone”, “invention (Vehicle).” for “invention (vehicle).”
as §8

Sequence of human recombinant dopamine D2 receptor (P14416 whole entry): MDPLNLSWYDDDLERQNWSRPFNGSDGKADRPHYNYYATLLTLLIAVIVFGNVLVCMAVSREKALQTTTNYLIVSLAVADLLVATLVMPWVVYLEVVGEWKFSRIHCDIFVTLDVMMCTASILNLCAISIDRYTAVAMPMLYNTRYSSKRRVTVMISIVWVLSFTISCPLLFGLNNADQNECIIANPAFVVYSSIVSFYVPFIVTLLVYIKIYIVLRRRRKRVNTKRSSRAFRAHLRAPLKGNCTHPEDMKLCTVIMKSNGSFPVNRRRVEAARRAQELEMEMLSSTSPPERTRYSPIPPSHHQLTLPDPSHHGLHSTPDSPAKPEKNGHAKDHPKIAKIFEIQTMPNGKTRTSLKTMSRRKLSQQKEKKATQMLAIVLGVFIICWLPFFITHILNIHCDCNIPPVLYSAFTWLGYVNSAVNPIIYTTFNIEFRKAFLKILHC
Sequence of human recombinant dopamine D3 receptor (P35462 whole entry): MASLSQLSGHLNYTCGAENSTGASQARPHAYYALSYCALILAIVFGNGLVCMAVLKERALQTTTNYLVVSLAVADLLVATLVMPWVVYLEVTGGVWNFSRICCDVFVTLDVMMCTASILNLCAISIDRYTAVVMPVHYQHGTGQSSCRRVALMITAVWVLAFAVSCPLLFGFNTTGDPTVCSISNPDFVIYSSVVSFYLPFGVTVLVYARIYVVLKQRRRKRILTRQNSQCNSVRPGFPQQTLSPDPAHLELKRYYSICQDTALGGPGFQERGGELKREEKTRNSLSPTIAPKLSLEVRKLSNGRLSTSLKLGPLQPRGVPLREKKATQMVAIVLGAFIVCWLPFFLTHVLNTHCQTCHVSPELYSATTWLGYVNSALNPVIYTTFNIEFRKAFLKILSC

CC(Oc1ccc2c(n1)CCN(CC[C@H]1CC[C@H](NC(=O)c3cccc4nn(C)cc34)CC1)CC2)C(F)F (single isomer, unassigned) [Example I-123]
pKi [1]: 10.47 | pKi [2]: 6.70

CC(Oc1ccc2c(n1)CCN(CC[C@H]1CC[C@H](NC(=O)c3cccc4nn(C)cc34)CC1)CC2)C(F)F (single isomer, unassigned) [Example I-124]
pKi [1]: 10.14 | pKi [2]: 6.74

Cc1ncc(CC(=O)NC2CC3CCC(C2)N3CCN2CCc3sc(OCC(F)(F)F)nc3C2)s1 (single isomer, unassigned) [Example I-134]
pKi [1]: 9.77 | pKi [2]: 6.52

Cn1cc2ccc(C(=O)N[C@H]3CC[C@H](CCN4CCc5nc(OCC(C)(F)F)sc5CC4)CC3)cc2n1 [Example I-050]
pKi [1]: 9.80 | pKi [2]: < 5.74

CC(F)(F)COc1nc2c(s1)CCN(CC[C@H]1CC[C@H](NC(=O)c3cnn4ccccc34)CC1)CC2 [Example I-051]
pKi [1]: 9.37 | pKi [2]: 5.96

Cc1cc(CC(=O)N[C@H]2CC[C@H](CCN3CCc4nc(OCC(C)(F)F)sc4CC3)CC2)on1 [Example I-052]
pKi [1]: 10.08 | pKi [2]: 5.77

Cc1cc(OCC(=O)N[C@H]2CC[C@H](CCN3CCc4nc(OCC(C)(F)F)sc4CC3)CC2)no1 [Example I-053]
pKi [1]: 9.70 | pKi [2]: 6.20

Cn1nnc2cccc(C(=O)N[C@H]3CC[C@H](CCN4CCc5nc(OCC(C)(F)F)sc5CC4)CC3)c21 [Example I-054]
pKi [1]: 9.89 | pKi [2]: 6.57

Cn1ccc2c(C(=O)N[C@H]3CC[C@H](CCN4CCc5nc(OCC(C)(F)F)sc5CC4)CC3)cccc2c1=O [Example I-055]
pKi [1]: 9.72 | pKi [2]: < 5.74

Cn1cc2c(C(=O)N[C@H]3CC[C@H](CCN4CCc5ccc(OC6CCC(F)(F)C6)nc5CC4)CC3)cccc2n1 (some centres unmarked) [Example I-057]
pKi [1]: 9.74 | pKi [2]: 6.11

Cc1cc2c(C(=O)N[C@H]3CC[C@](F)(CCN4CCc5nc(OCC(F)F)sc5CC4)CC3)cccn2n1 [Example I-058]
pKi [1]: 9.33 | pKi [2]: < 5.77

Cc1ncc(/C=C/C(=O)N[C@H]2CC[C@](F)(CCN3CCc4nc(OCC(F)F)sc4CC3)CC2)cn1 [Example I-061]
pKi [1]: 9.19 | pKi [2]: < 5.74

CC(C)Oc1ccc2c(n1)CCN(CC[C@H]1CC[C@H](NC(=O)c3cnn4ccccc34)CC1)CC2 [Example I-062]
pKi [1]: 9.00 | pKi [2]: 5.96

CC(C)Oc1ccc2c(n1)CCN(CC[C@H]1CC[C@H](NC(=O)c3cccc4c(=O)n(C)ccc34)CC1)CC2 [Example I-063]
pKi [1]: 9.21 | pKi [2]: 5.77

Cc1ncc(CC(=O)N[C@H]2CC[C@H](CCN3CCc4nc(OCC(C)(F)F)sc4CC3)OC2)s1 [Example I-064]
pKi [1]: 9.52 | pKi [2]: 6.02

Cc1c(F)cccc1C(=O)N[C@H]1CC[C@H](CCN2CCc3nc(OCC(C)(F)F)sc3CC2)OC1 [Example I-065]
pKi [1]: 9.59 | pKi [2]: 6.47

Cn1ncc2ccc(C(=O)N[C@H]3CC[C@H](CCN4CCc5nc(OCC(C)(F)F)sc5CC4)OC3)cc21 [Example I-067]
pKi [1]: 9.80 | pKi [2]: 6.43

Cc1ncc(OCC(=O)N[C@H]2CC[C@H](CCN3CCc4nc(OCC(C)(F)F)sc4CC3)OC2)cn1 [Example I-068]
pKi [1]: 9.33 | pKi [2]: 6.06

Cc1nc(CC(=O)N[C@H]2CC[C@H](CCN3CCc4sc(C5CC(F)(F)C5)nc4C3)CC2)no1 [Example I-070]
pKi [1]: 9.77 | pKi [2]: 6.11

CN1Cc2c(C(=O)N[C@H]3CC[C@](F)(CCN4CCc5nc(OCC(F)F)sc5CC4)CC3)cccc2C1=O [Example I-072]
pKi [1]: 9.89 | pKi [2]: < 5.77

Cc1nc(CC(=O)N[C@H]2CC[C@](F)(CCN3CCc4ccc(OCC(C)(F)F)nc4CC3)CC2)no1 [Example I-078]
pKi [1]: 9.89 | pKi [2]: < 5.74

Cc1cc(OCC(=O)N[C@H]2CC[C@](F)(CCN3CCc4ccc(OCC(C)(F)F)nc4CC3)CC2)no1 [Example I-079]
pKi [1]: 10.15 | pKi [2]: < 5.74

Cc1cc(OCC(=O)N[C@H]2CC[C@](F)(CCN3CCc4ccc(OCC(F)F)nc4CC3)CC2)no1 [Example I-084]
pKi [1]: 9.60 | pKi [2]: < 5.66

COc1cc(CC(=O)N[C@H]2CC[C@](F)(CCN3CCc4ccc(OCC(F)F)nc4CC3)CC2)on1 [Example I-085]
pKi [1]: 10.36 | pKi [2]: < 5.66

Cc1cnc(CC(=O)N[C@H]2CC[C@](F)(CCN3CCc4ccc(OCC(F)F)nc4CC3)CC2)o1 [Example I-086]
pKi [1]: 9.28 | pKi [2]: < 5.66

Cn1cc2c(C(=O)N[C@H]3CC[C@H](CCN4CCc5ccc(OC6CCC6)nc5CC4)CC3)cccc2n1 [Example I-089]
pKi [1]: 9.66 | pKi [2]: < 5.66

Cc1cnc(CC(=O)N[C@H]2CC[C@H](CCN3CCc4ccc(OC5CCC5)nc4CC3)CC2)o1 [Example I-090]
pKi [1]: 9.19 | pKi [2]: < 5.62

Cc1ncccc1C(=O)N[C@H]1CC[C@H](CCN2CCc3ccc(OCC(F)F)nc3CC2)CC1 [Example I-091]
pKi [1]: 9.55 | pKi [2]: 6.03

CCn1c(C(=O)N[C@H]2CC[C@H](CCN3CCc4ccc(OCC(F)F)nc4CC3)CC2)cccc1=O [Example I-092]
pKi [1]: 9.80 | pKi [2]: 6.51

Cc1nnc(CC(=O)N[C@H]2CC[C@H](CCN3CCc4ccc(OCC(F)F)nc4CC3)CC2)o1 [Example I-093]
pKi [1]: 9.77 | pKi [2]: 5.92

Cc1cc(CC(=O)N[C@H]2CC[C@H](CCN3CCc4ccc(OCC(F)F)nc4CC3)CC2)no1 [Example I-094]
pKi [1]: 9.52 | pKi [2]: 6.04

Cn1cc(CC(=O)N[C@H]2CC[C@H](CCN3CCc4ccc(OCC(F)F)nc4CC3)CC2)cn1 [Example I-095]
pKi [1]: 9.74 | pKi [2]: 5.85

Cn1cc(OCC(=O)N[C@H]2CC[C@H](CCN3CCc4ccc(OCC(F)F)nc4CC3)CC2)cn1 [Example I-096]
pKi [1]: 9.74 | pKi [2]: 6.24

Cc1ncc(OCC(=O)N[C@H]2CC[C@H](CCN3CCc4ccc(OCC(F)F)nc4CC3)CC2)cn1 [Example I-097]
pKi [1]: 9.96 | pKi [2]: 6.05

Cc1ncc(/C=C/C(=O)N[C@H]2CC[C@H](CCN3CCc4ccc(OCC(F)F)nc4CC3)CC2)cn1 [Example I-098]
pKi [1]: 9.77 | pKi [2]: 6.46

Cn1ncc(CC(=O)N[C@H]2CC[C@](F)(CCN3CCc4ccc(OC5CCC5)nc4CC3)CC2)n1 [Example I-106]
pKi [1]: 9.27 | pKi [2]: < 5.64

Cc1ncc(CC(=O)N[C@H]2CC[C@H](CCN3CCc4nc(OCC(F)(F)F)sc4CC3)CC2)cn1 [Example I-110]
pKi [1]: 9.77 | pKi [2]: 6.34

Cc1nnc(CC(=O)N[C@H]2CC[C@](F)(CCN3CCc4nc(OCCC(F)(F)F)sc4CC3)CC2)s1 [Example I-115]
pKi [1]: 9.20 | pKi [2]: < 5.66

Cc1ncc(/C=C/C(=O)N[C@H]2CC[C@](F)(CCN3CCc4nc(OCCC(F)(F)F)sc4CC3)CC2)cn1 [Example I-116]
pKi [1]: 9.00 | pKi [2]: < 5.66

Cc1cnc(CC(=O)N[C@H]2CC[C@](F)(CCN3CCc4nc(OCCC(F)(F)F)sc4CC3)CC2)o1 [Example I-117]
pKi [1]: 9.26 | pKi [2]: < 5.66

Cc1cnc(OCC(=O)N[C@H]2CC[C@](F)(CCN3CCc4nc(OCCC(F)(F)F)sc4CC3)CC2)cn1 [Example I-118]
pKi [1]: 9.13 | pKi [2]: < 5.66

C[C@@H](Oc1nc2c(s1)CCN(CC[C@H]1CC[C@H](NC(=O)COc3cnn(C)c3)CC1)CC2)C(F)(F)F [Example I-120]
pKi [1]: 9.08 | pKi [2]: 6.08

O=C(N[C@H]1CC[C@H](CCN2CCc3ccc(OCC(F)F)nc3CC2)CC1)c1cccnc1C(F)F [Example I-121]
pKi [1]: 9.59 | pKi [2]: 6.19

Cn1c(C(=O)N[C@H]2CC[C@H](CCN3CCc4nc(OCC(F)(F)F)sc4CC3)CC2)ccc(F)c1=O [Example I-122]
pKi [1]: 9.62 | pKi [2]: 6.44

Cc1nnc(CC(=O)N[C@H]2CC[C@H](CCN3CCc4nc(O[C@H](C)C(F)(F)F)sc4CC3)CC2)s1 [Example I-125]
pKi [1]: 9.21 | pKi [2]: 5.96

Cc1nnc(CC(=O)N[C@H]2CC[C@](F)(CCN3CCc4nc(O[C@H](C)C(F)(F)F)sc4CC3)CC2)s1 [Example I-126]
pKi [1]: 9.04 | pKi [2]: < 5.64

Cc1ncc(OCC(=O)N[C@H]2CC[C@H](CCN3CCc4ccc(O[C@H](C)C(F)(F)F)nc4CC3)CC2)cn1 [Example I-127]
pKi [1]: 9.92 | pKi [2]: 6.39

Cn1cc(OCC(=O)N[C@H]2CC[C@H](CCN3CCc4ccc(CCC(F)(F)F)nc4CC3)CC2)cn1 [I′-6]
pKi [1]: 9.48
